Values quoted from earlier work as cited in patent US20250032538A1, “METHOD AND COMPOSITION FOR RESTORING HOMEOSTASIS, TREATING, AND PREVENTING DEGENERATIVE DISEASES, ACHIEVING ANTI-AGING EFFECT” (Vector Vitale IP LLC, priority 2023, published 2025).
Like-named read-outs stand apart in the source and are kept apart here.

Columns and labels:
rats [1] = test system: rats
rats [2] = settings: rat, in vivo

[Cl-].[Cl-].[Cl-].[Sc+3] [scandium (III) chloride]
half lethal dose (LD50) (rats [1]; intraperitoneal): 4 mg/kg | half lethal dose (LD50) (rats [1]; oral administration): 755 mg/kg

Titanium dioxide
carcinogenicity: lung tumors (rats [2]): increased lung tumors
